Assay results: patent EP0973746B1, “SUBSTITUTED 3-CYANO QUINOLINES” (Wyeth Holdings Corporation, priority 1997, dated 1998)
Converted amounts (≈) assume the structure as drawn. Where two headings read alike, the source gives them in different places.

What was measured:
MIP = assay: Inhibition of cancer cell growth as measured by cell number, MIP; assay type: cell-based; conditions: Homo sapiens; cell number, Sulforhodamine B, 48 hours exposure; Table 4; read-out: IC50 MIP
HL60 = assay: Inhibition of cancer cell growth as measured by cell number, HL60; assay type: cell-based; conditions: Homo sapiens, read-out: IC50 HL60
A2780DDP = assay: Inhibition of cancer cell growth as measured by cell number, A2780DDP; assay type: cell-based; conditions: Homo sapiens, read-out: IC50 A2780DDP
A431 [1] = assay: Inhibition of cancer cell growth as measured by cell number, A431; assay type: cell-based, human; conditions: Homo sapiens, A-431, 48 h, Table 6;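 note: human A431 line, picked because it overexpresses epidermal growth factor receptor (EGFR)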
Text: (§1) The cell lines were chosen since they overexpressed epidermal growth factor receptor (EGFR) (i.e. A431) or HER2/neu (SKBR3), or had little to no expression of the these receptors (SW620, LOX, MCF7).

HCT15 = assay: Inhibition of cancer cell growth as measured by cell number, HCT15; assay type: cell-based; conditions: Homo sapiens, read-out: IC50 HCT15
A431 [2] = assay: Inhibition of cell growth by incorporation of [3H]-thymidine, A431; assay type: cell-based, human; conditions: Homo sapiens
PC3 = assay: Inhibition of cancer cell growth as measured by cell number, PC3; assay type: cell-based; conditions: Homo sapiens, read-out: IC50 PC3
T47D = assay: Inhibition of cancer cell growth as measured by cell number, T47D; assay type: cell-based; conditions: Homo sapiens
LOX = assay: Inhibition of cancer cell growth as measured by cell number, LOX; assay type: cell-based, human; conditions: Homo sapiens, LOX, 48 h, Table 6;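 note: LOX cells served as a line with low or absent EGFR and HER2/neu expression, in contrast to receptor-overexpressing lines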
Text: as §1

SW620 = assay: Inhibition of cancer cell growth as measured by cell number, SW620; assay type: cell-based, human; conditions: Homo sapiens, SW-620, 48 h, Table 4;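 note: SW620 was included as a cell line with little or no EGFR or HER2/neu expression, in contrast to receptor-overexpressing lines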
Text: as §1

NEC = assay: Inhibition of cancer cell growth as measured by cell number, NEC; assay type: cell-based; conditions: Homo sapiens, read-out: IC50 NEC
LX1 = assay: Inhibition of cancer cell growth as measured by cell number, LX1; assay type: cell-based; conditions: Homo sapiens, read-out: IC50 LX1
SW948 = assay: Inhibition of cancer cell growth as measured by cell number, SW948; assay type: cell-based; conditions: Homo sapiens, read-out: IC50 SW948
[3] = biological target: recombinant human MEK 1 (MAPKK) and recombinant human ERK2 (MAPK); assay: Mitogen Activated Protein Kinase (MAPK) assay, two component coupled MEK 1 / ERK2; assay type: biochemical; conditions: separate entries for the same compound = evaluated more than one time;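 note: MEK 1-activated ERK2 phosphorylates MBP or Myc peptide with 33P-ATP, filter capture and scintillation counting, inhibitor preincubated with ERK2 30 min at 0 °C, inhibition relative to uninhibited control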
DU145 = assay: Inhibition of cancer cell growth as measured by cell number, DU145; assay type: cell-based; conditions: Homo sapiens, read-out: IC50 DU145
SKBR3 = assay: Inhibition of cancer cell growth as measured by cell number, SKBR3; assay type: cell-based, human; conditions: Homo sapiens, Table 7;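 note: SK-BR-3 cells were selected as a line overexpressing HER2/neu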
Text: as §1

CCL228 = assay: Inhibition of cancer cell growth as measured by cell number, CCL228; assay type: cell-based; conditions: Homo sapiens, read-out: IC50 CCL228
MCF7 = assay: Inhibition of cancer cell growth as measured by cell number, MCF7; assay type: cell-based, human; conditions: Homo sapiens, MCF7, 48 h, Table 5;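 note: MCF7 was included as a line with little or no EGFR or HER2/neu expression, in contrast to the receptor-overexpressing lines of the panel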
Text: as §1

CACO2 = assay: Inhibition of cancer cell growth as measured by cell number, CACO2; assay type: cell-based; conditions: Homo sapiens, read-out: IC50 CACO2
A549 = assay: Inhibition of cancer cell growth as measured by cell number, A549; assay type: cell-based; conditions: Homo sapiens, read-out: IC50 A549
COLO205 = assay: Inhibition of cancer cell growth as measured by cell number, COLO205; assay type: cell-based; conditions: Homo sapiens, read-out: IC50 COLO205
HTB161 = assay: Inhibition of cancer cell growth as measured by cell number, HTB161; assay type: cell-based; conditions: Homo sapiens, read-out: IC50 HTB161
CX1 = assay: Inhibition of cancer cell growth as measured by cell number, CX1; assay type: cell-based; conditions: Homo sapiens, read-out: IC50 CX1
LS174T = assay: Inhibition of cancer cell growth as measured by cell number, LS174T; assay type: cell-based; conditions: Homo sapiens
CCRF-CFM = assay: Inhibition of cancer cell growth as measured by cell number, CCRF-CFM; assay type: cell-based; conditions: Homo sapiens, read-out: IC50 CCRF-CFM
LNCAP = assay: Inhibition of cancer cell growth as measured by cell number, LNCAP; assay type: cell-based; conditions: Homo sapiens
B7474 = assay: Inhibition of cancer cell growth as measured by cell number, B7474; assay type: cell-based; conditions: Homo sapiens, read-out: IC50 B7474
A27805 = assay: Inhibition of cancer cell growth as measured by cell number, A27805; assay type: cell-based; conditions: Homo sapiens, read-out: IC50 A27805
[4] = cell number, Sulforhodamine B, 48 hours exposure, Table 4
[5] = cell number, Sulforhodamine B, 48 hours exposure, Table 6

How did the IC50 (MIP) turn out when N#Cc1cnc2ccc([N+](=O)[O-])cc2c1Nc1cccc(Br)c1 [Example 13, 4-[(3-Bromophenyl)amino]-6-nitro-3-quinolinecarbonitrile] was run?
Its IC50 is 7.8 µg/mL (≈ 21.1 µM).

And the IC50 (HL60; HL-60, 48 h)?
The IC50 was 70.2 µg/mL (≈ 190 µM).

What about the IC50 (A2780DDP; 48 h) of the same molecule?
The IC50 was 57 µg/mL (≈ 154 µM).

And the IC50 (A431 [1]; read-out: IC50 A431, cell number, Sulforhodamine B, 48 hours exposure)?
The IC50 was 91 µg/mL (≈ 246 µM).

What about the IC50 (HCT15; HCT-15, 48 h) of the same molecule?
Its IC50 is 100 µg/mL (≈ 271 µM).

And the IC50 (A431 [2]; A-431, read-out: IC50 A431)?
Its IC50 is 50 µM.

What about the IC50 (PC3; PC-3, 48 h) of the same molecule?
Its IC50 is over 100 µg/mL.

What about the IC50 (T47D; 48 h, read-out: IC50 T47D) of the same molecule?
Its IC50 is 47.7 µg/mL (≈ 129 µM).

And the IC50 (LOX; read-out: IC50 LOX, cell number, Sulforhodamine B, 48 hours exposure)?
The IC50 was over 100 µg/mL.

And the IC50 (SW620; read-out: IC50 SW620, cell number, Sulforhodamine B, 48 hours exposure)?
The IC50 was 100 µg/mL (≈ 271 µM).

And the IC50 (NEC; 48 h)?
Its IC50 is over 100 µg/mL.

And the IC50 (LX1; LX-1, 48 h)?
The IC50 was over 100 µg/mL.

And the IC50 (SW948; SW948, 48 h)?
Its IC50 is over 100 µg/mL.

And the IC50 [3]?
The IC50 was over 100 µM.

What about the IC50 (DU145; DU-145, 48 h) of the same molecule?
The IC50 was 65.8 µg/mL (≈ 178 µM).

And the IC50 (SKBR3; SK-BR-3, 48 h, read-out: IC50 SKBR3, cell number, Sulforhodamine B, 48 hours exposure)?
The IC50 was 100 µg/mL (≈ 271 µM).

What about the IC50 (CCL228; 48 h) of the same molecule?
Its IC50 is over 100 µg/mL.

What about the IC50 (MCF7; read-out: IC50 MCF7, cell number, Sulforhodamine B, 48 hours exposure) of the same molecule?
Its IC50 is 65 µg/mL (≈ 176 µM).

And the IC50 (CACO2; Caco-2, 48 h)?
The IC50 was 31.5 µg/mL (≈ 85.4 µM).

And the IC50 (A549; A549, 48 h)?
Its IC50 is over 100 µg/mL.

What about the IC50 (COLO205; COLO 205, 48 h) of the same molecule?
The IC50 was 45.8 µg/mL (≈ 124 µM).

What about the IC50 (HTB161; 48 h) of the same molecule?
The IC50 was 97.1 µg/mL (≈ 263 µM).

And the IC50 (CX1; CX-1, 48 h)?
Its IC50 is over 100 µg/mL.

And the IC50 (LS174T; 48 h, read-out: IC50 LS174T)?
Its IC50 is 94 µg/mL (≈ 255 µM).

What about the IC50 (CCRF-CFM; 48 h) of the same molecule?
The IC50 was over 100 µg/mL.

And the IC50 (LNCAP; 48 h, read-out: IC50 LNCAP)?
The IC50 was over 100 µg/mL.

What about the IC50 (B7474; 48 h) of the same molecule?
The IC50 was 98.8 µg/mL (≈ 268 µM).

What about the IC50 (A27805; 48 h) of the same molecule?
The IC50 was 9.94 µg/mL (≈ 26.9 µM).

How did the IC50 (MIP) turn out when COc1cc2ncc(C#N)c(NC3CCCCC3)c2cc1OC [Example 38, 4-(Cyclohexyamino)-6,7-dimethoxy-3-quinolinecarbonitrile] was run?
The IC50 was 7.75 µg/mL (≈ 24.9 µM).

What about the IC50 (HL60; HL-60, cell number, Sulforhodamine B, 48 hours exposure, Table 7) of the same molecule?
The IC50 was 4.27 µg/mL (≈ 13.7 µM).

What about the IC50 (A2780DDP; [4]) of the same molecule?
Its IC50 is 6.56 µg/mL (≈ 21.1 µM).

What about the IC50 (A431 [1]; cell number, Sulforhodamine B, 48 hours exposure, read-out: IC50 A431) of the same molecule?
Its IC50 is 4.73 µg/mL (≈ 15.2 µM).

And the IC50 (HCT15; HCT-15, cell number, Sulforhodamine B, 48 hours exposure, Table 5)?
The IC50 was 5.16 µg/mL (≈ 16.6 µM).

What about the IC50 (A431 [2]; A-431, [3H]-thymidine incorporation, A431, read-out: IC50 A431) of the same molecule?
Its IC50 is 35 µM.

And the IC50 (PC3; PC-3, cell number, Sulforhodamine B, 48 hours exposure, Table 7)?
The IC50 was 9.33 µg/mL (≈ 30 µM).

What about the IC50 (T47D; cell number, Sulforhodamine B, 48 hours exposure, Table 6, read-out: IC50 T47D) of the same molecule?
The IC50 was 5.98 µg/mL (≈ 19.2 µM).

What about the IC50 (LOX; cell number, Sulforhodamine B, 48 hours exposure, read-out: IC50 LOX) of the same molecule?
The IC50 was 8.12 µg/mL (≈ 26.1 µM).

What about the IC50 (SW620; cell number, Sulforhodamine B, 48 hours exposure, read-out: IC50 SW620) of the same molecule?
Its IC50 is 31.7 µg/mL (≈ 102 µM).

What about the IC50 (NEC; [5]) of the same molecule?
Its IC50 is 6.53 µg/mL (≈ 21 µM).

What about the IC50 (LX1; LX-1, cell number, Sulforhodamine B, 48 hours exposure, Table 6) of the same molecule?
The IC50 was 7.52 µg/mL (≈ 24.2 µM).

What about the IC50 (SW948; SW948, cell number, Sulforhodamine B, 48 hours exposure, Table 5) of the same molecule?
The IC50 was 10.4 µg/mL (≈ 33.5 µM).

What about the IC50 [3] of the same molecule?
Its IC50 is 45 µM.

What about the IC50 (DU145; DU-145, cell number, Sulforhodamine B, 48 hours exposure, Table 7) of the same molecule?
The IC50 was 5.15 µg/mL (≈ 16.5 µM).

And the IC50 (SKBR3; SK-BR-3, cell number, Sulforhodamine B, 48 hours exposure, read-out: IC50 SKBR3)?
The IC50 was 7.14 µg/mL (≈ 22.9 µM).

What about the IC50 (CCL228; cell number, Sulforhodamine B, 48 hours exposure, Table 5) of the same molecule?
The IC50 was 8.49 µg/mL (≈ 27.3 µM).

And the IC50 (MCF7; cell number, Sulforhodamine B, 48 hours exposure, read-out: IC50 MCF7)?
The IC50 was 6 µg/mL (≈ 19.3 µM).

What about the IC50 (CACO2; Caco-2, cell number, Sulforhodamine B, 48 hours exposure, Table 5) of the same molecule?
Its IC50 is 5.62 µg/mL (≈ 18 µM).

And the IC50 (A549; A549, cell number, Sulforhodamine B, 48 hours exposure, Table 6)?
Its IC50 is 7.33 µg/mL (≈ 23.5 µM).

And the IC50 (COLO205; COLO 205, cell number, Sulforhodamine B, 48 hours exposure, Table 4)?
Its IC50 is 6.43 µg/mL (≈ 20.6 µM).

What about the IC50 (HTB161; [4]) of the same molecule?
The IC50 was 3.19 µg/mL (≈ 10.3 µM).

What about the IC50 (CX1; CX-1, cell number, Sulforhodamine B, 48 hours exposure, Table 4) of the same molecule?
Its IC50 is 5.62 µg/mL (≈ 18.1 µM).

And the IC50 (LS174T; cell number, Sulforhodamine B, 48 hours exposure, Table 5, read-out: IC50 LS174T)?
Its IC50 is 5.37 µg/mL (≈ 17.2 µM).

What about the IC50 (CCRF-CFM; cell number, Sulforhodamine B, 48 hours exposure, Table 7) of the same molecule?
Its IC50 is 4.39 µg/mL (≈ 14.1 µM).

And the IC50 (LNCAP; cell number, Sulforhodamine B, 48 hours exposure, Table 7, read-out: IC50 LNCAP)?
The IC50 was 4.58 µg/mL (≈ 14.7 µM).

And the IC50 (B7474; [5])?
The IC50 was 17 µg/mL (≈ 54.5 µM).

And the IC50 (A27805; [4])?
The IC50 was 4.58 µg/mL (≈ 14.7 µM).
